Data from ChEMBL document CHEMBL5696442, “Discovery of type II inhibitors of TGFβ-activated kinase 1 (TAK1) and mitogen-activated protein kinase kinase kinase kinase 2 (MAP4K2)” (J Med Chem, 2015).
Activity calls are given as the source filed them. The calls are words filed in the database; no cut-off is given here.

Columns and labels:
[1] = target: Casein kinase I isoform gamma-3 (Homo sapiens) (UniProt Q9Y6M4); assay: Inhibition of CSNK1G3 (unknown origin) at 1 uM by Ambit Kinomescan binding assay relative to control
[2] = target: Ribosomal protein S6 kinase alpha-5 (Homo sapiens) (UniProt O75582); assay: Inhibition of N-terminal RPS6KA5 kinase domain 1 (unknown origin) at 10 uM by Ambit Kinomescan binding assay relative to control
[3] = target: T1, PAN2-PAN3 deadenylation complex subunit PAN3 (Homo sapiens) (UniProt Q58A45); assay: Inhibition of PAN3 KD labeling site in human Huh-7 cells at 10 uM by KiNativ Profiling analysis relative to control; format: cell-based
T1 sequence (whole entry): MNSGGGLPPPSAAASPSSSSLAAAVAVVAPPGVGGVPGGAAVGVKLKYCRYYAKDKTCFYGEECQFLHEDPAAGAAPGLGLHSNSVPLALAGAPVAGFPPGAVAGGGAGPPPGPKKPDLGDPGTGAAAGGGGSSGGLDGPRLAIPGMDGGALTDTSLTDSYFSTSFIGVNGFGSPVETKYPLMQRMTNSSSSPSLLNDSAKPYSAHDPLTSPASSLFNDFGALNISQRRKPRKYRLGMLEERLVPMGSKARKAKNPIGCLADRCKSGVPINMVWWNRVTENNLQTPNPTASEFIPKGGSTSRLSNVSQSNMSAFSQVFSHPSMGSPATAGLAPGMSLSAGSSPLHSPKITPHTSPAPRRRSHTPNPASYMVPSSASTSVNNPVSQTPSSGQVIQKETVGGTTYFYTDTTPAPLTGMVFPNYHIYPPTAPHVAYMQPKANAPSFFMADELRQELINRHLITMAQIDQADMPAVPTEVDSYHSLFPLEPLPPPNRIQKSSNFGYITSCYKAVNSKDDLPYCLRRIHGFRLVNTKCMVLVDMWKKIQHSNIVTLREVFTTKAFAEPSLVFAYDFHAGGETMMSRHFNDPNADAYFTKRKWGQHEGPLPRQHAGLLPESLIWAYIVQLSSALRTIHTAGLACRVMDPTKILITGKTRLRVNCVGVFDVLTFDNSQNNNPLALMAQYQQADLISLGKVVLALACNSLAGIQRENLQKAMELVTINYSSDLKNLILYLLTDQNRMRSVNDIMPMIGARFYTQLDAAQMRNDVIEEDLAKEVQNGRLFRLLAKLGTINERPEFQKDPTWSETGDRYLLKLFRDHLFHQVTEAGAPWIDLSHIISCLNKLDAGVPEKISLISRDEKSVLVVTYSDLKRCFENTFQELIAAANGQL

[4] = target: T2, NUAK family SNF1-like kinase 1 (Homo sapiens) (UniProt O60285); assay: Inhibition of NuaK1 K2 labeling site in human Huh-7 cells at 1 uM by KiNativ Profiling analysis relative to control; format: cell-based
T2 sequence (whole entry): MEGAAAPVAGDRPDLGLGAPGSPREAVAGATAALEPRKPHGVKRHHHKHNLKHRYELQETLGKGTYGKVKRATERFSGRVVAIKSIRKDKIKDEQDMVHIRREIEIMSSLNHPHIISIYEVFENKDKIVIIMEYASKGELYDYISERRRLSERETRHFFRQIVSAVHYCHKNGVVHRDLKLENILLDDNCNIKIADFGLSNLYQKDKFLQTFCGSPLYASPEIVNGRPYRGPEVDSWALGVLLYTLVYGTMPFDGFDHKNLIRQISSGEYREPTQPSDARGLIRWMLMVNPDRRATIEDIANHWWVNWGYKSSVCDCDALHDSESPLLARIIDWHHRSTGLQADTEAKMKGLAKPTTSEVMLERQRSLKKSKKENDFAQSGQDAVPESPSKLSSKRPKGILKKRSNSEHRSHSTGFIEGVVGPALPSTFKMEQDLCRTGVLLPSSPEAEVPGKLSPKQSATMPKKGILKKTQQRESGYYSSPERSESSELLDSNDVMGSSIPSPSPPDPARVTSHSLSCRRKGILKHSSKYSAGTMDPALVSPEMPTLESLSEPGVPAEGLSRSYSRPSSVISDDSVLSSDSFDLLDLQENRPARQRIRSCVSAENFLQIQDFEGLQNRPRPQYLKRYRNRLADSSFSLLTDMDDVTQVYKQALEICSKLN

[5] = target: T3, Serine/threonine-protein kinase greatwall (Homo sapiens) (UniProt Q96GX5); assay: Inhibition of MASTL ATP labeling site in human Huh-7 cell lysate at 1 uM by KiNativ Profiling analysis relative to control; format: subcellular
T3 sequence (whole entry): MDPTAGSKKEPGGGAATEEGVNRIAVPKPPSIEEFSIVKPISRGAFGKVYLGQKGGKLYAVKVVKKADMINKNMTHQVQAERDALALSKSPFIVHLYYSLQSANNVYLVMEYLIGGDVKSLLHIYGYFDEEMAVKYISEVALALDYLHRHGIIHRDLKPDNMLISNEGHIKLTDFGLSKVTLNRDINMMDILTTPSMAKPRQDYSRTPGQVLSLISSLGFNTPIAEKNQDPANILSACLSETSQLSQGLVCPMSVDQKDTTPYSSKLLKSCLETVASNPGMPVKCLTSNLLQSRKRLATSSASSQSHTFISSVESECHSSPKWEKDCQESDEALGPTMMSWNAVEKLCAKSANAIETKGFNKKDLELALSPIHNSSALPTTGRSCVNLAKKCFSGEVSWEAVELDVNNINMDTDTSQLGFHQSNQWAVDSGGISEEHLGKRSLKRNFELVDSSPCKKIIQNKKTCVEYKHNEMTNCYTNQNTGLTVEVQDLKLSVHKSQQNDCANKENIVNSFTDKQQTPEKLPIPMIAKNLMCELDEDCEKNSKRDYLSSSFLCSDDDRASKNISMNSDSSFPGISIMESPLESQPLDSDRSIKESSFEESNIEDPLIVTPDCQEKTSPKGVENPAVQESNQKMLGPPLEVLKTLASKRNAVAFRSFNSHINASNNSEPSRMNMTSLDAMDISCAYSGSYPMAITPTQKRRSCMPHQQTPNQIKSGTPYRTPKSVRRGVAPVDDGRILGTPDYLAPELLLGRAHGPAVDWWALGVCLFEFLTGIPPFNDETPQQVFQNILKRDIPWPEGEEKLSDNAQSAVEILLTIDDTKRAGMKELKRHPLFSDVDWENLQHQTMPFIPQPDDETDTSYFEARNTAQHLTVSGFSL

Casein kinase I isoform gamma-3 (Homo sapiens), sequence (Q9Y6M4 whole entry, looked up, the tested form may be a part, canonical isoform): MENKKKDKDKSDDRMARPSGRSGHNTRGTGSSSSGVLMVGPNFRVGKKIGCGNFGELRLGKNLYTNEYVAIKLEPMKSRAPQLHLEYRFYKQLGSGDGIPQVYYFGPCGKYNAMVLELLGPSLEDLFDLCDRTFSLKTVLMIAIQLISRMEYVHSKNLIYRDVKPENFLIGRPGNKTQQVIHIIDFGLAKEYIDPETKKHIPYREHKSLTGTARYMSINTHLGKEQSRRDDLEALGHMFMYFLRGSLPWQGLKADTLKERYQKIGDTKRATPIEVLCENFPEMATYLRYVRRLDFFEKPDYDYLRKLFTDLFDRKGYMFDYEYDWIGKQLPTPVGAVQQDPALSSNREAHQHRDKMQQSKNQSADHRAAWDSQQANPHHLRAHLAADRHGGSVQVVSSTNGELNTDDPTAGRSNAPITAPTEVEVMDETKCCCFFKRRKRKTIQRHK
Ribosomal protein S6 kinase alpha-5 (Homo sapiens), sequence (O75582 whole entry, looked up, the tested form may be a part): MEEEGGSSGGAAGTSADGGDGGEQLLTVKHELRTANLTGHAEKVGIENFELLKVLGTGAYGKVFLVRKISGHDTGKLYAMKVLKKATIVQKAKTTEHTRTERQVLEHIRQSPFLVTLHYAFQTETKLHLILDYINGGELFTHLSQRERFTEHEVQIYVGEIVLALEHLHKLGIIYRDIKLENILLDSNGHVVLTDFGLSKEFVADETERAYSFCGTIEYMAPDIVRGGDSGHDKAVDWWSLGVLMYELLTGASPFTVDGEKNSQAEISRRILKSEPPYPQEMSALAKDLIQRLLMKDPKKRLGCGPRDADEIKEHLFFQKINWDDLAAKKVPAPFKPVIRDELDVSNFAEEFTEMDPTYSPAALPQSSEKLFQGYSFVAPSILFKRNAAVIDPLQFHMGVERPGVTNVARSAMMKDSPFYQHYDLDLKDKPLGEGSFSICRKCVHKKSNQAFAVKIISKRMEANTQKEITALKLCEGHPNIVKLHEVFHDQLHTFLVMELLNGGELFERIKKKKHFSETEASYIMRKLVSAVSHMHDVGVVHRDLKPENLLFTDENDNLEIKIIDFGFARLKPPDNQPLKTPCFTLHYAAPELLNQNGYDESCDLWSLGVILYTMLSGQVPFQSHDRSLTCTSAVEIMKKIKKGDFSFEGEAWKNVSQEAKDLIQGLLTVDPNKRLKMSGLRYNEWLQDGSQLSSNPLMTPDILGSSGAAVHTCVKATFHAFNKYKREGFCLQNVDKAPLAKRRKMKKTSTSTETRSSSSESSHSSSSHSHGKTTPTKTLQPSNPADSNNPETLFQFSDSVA

CCN1CCN(Cc2ccc(NC(=O)c3ccc(C)c(/C=C/c4cnc5[nH]ccc5c4OC)c3)cc2C(F)(F)F)CC1 showed an inhibition [1] of 71%.
With CCN1CCN(Cc2ccc(NC(=O)c3ccc(C)c(Oc4ccnc5[nH]ccc45)c3)cc2C(F)(F)F)CC1 the inhibition [2] was “inactive”, the inhibition [3] was 4.5% and the inhibition [4] was -9.8%.
CNc1cc(Oc2cc(C(=O)Nc3cc(N4CCN(C)CC4)cc(C(F)(F)F)c3)ccc2C)ncn1 was tested, and the inhibition [5] was 8.6%.
